Laboratory results from patent US8377963B2, “Insulin-regulated aminopeptidase (IRAP) inhibitors and uses thereof” (Howard Florey Institute, priority 2007, dated 2013).

Experiments:
IRAP = target: T1, IRAP (Homo sapiens, UniProt Q9UIQ6); experiment: IRAP enzymatic assay (hydrolysis of Leu-MCA); type: biochemical; settings: substrate Leu-MCA, solubilized membranes of HEK 293T cells transfected with IRAP
T1 construct: expressed in transfected cells; host or cells: HEK 293T
Procedure: An in vitro enzymatic assay was used to initially assess IRAP inhibitory activity.
After solubilization, the membranes were pelleted by centrifugation at 23,100 g for 15 min at 4° C., and the supernatant was reserved as the source of IRAP activity. The enzymatic activities of IRAP were determined by the hydrolysis of the synthetic substrate Leu-MCA (Sigma-Aldrich, Missouri, USA) monitored by the release of a fluorogenic product, MCA, at excitation and emission wavelengths of 380 and 440 nm, respectively. Assays were performed in 96-well plates; each well contains between […] solubilized membrane protein, a range of concentration of substrate in a final volume of 100 μL 50 mM Tris-HCl buffer (pH 7.4). Non-specific hydrolysis of the substrate was corrected by subtracting the emission from incubations with membranes transfected with empty vector. Reactions proceeded at 37° C. for 30 min within a thermostatted FLEX station fluorescence microplate reader (Molecular Devices, Sunnyvale, Calif.). […] Km values of IRAP for Leu-MCA were determined from the kinetic studies. […] All data obtained were from at least three separate experiments performed in duplicate.

Recombinant human LTA4H = target: T2, Recombinant human LTA4H (Homo sapiens, UniProt P09960); experiment: Leukotriene A4 hydrolase assay; type: biochemical; settings: read-out: % inhibition of the catalytic activity of the enzyme
T2 construct: purchased Cayman Chemicals
T2 sequence (P09960 1-611): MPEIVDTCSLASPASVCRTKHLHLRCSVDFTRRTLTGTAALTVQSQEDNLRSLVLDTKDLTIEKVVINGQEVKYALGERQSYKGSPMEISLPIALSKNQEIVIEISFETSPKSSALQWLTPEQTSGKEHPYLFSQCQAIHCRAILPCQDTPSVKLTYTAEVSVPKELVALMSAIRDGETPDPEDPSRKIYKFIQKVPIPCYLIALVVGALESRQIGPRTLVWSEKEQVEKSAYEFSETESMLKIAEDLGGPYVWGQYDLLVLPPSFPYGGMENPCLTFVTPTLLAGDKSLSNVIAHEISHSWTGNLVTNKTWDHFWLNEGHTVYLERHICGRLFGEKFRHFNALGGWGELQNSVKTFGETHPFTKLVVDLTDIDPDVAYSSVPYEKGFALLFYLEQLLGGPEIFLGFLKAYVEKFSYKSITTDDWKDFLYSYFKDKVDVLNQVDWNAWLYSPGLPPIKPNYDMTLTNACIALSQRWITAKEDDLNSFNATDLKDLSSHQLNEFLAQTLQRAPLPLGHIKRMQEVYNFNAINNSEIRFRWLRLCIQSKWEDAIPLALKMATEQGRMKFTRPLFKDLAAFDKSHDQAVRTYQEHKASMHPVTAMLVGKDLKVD
Procedure: Leukotriene A4 hydrolase assay. Recombinant human LTA4H (Cayman Chemicals Michigan USA) (1-20 μg) was incubated at room temperature with alanine-p-nitroanilide as substrate in 50 mM Tris-HCl buffer, pH 8.0, containing 100 mM KCl with or without increasing concentrations of an inhibitor. The absorbance at 405 nm was measured at 10 min intervals.
(§1) Limited inhibition of control enzymes was observed.

[1] = target: Angiotensin converting enzyme 1 (Homo sapiens, UniProt P12821); experiment: Angiotensin converting enzyme assay; type: biochemical; settings: read-out: % inhibition of the catalytic activity of the enzyme
Angiotensin converting enzyme 1, sequence (P12821 30-1306): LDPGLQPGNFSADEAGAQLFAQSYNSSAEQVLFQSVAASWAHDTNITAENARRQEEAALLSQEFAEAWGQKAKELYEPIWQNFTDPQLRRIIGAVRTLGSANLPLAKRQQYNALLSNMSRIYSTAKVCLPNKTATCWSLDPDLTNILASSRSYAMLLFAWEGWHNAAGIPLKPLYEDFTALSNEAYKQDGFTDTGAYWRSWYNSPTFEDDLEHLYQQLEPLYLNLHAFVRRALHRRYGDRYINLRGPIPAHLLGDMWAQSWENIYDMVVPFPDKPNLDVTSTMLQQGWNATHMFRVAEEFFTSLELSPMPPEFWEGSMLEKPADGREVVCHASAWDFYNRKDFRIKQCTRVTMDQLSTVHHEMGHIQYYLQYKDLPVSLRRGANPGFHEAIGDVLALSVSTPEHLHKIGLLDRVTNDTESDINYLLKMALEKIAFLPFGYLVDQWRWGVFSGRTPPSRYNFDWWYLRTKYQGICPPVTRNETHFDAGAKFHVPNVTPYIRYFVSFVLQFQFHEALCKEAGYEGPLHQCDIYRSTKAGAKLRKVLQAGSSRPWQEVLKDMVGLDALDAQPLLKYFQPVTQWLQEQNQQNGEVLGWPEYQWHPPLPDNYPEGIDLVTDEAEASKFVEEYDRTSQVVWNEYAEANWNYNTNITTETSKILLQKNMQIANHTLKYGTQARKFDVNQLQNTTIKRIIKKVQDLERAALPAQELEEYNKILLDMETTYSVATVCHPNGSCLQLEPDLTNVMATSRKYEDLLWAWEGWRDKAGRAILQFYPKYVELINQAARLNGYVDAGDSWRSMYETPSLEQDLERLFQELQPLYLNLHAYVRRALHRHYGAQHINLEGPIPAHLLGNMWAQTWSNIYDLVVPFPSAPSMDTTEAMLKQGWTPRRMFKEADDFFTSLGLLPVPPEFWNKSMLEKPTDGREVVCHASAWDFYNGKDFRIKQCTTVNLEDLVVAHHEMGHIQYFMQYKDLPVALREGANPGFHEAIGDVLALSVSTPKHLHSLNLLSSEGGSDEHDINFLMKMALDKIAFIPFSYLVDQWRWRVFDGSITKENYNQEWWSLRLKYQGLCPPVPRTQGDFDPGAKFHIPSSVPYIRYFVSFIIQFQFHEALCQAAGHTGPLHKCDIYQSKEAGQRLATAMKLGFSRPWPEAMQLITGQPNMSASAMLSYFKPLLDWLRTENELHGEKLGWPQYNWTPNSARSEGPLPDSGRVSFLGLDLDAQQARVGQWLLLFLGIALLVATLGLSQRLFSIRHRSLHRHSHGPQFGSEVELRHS
Procedure: Angiotensin converting enzyme assay. The enzyme (final concentration 0.02 pmol/100 L) was incubated with 200 μL of assay solution that included 5 mmol/L HHL in 100 mmol/L potassium buffer (pH 8.3) that contained 300 mmol/L NaCl and 10^−4 mol/L ZnSO4 for 3 hours at 37° C. The enzymatic reaction was stopped by the addition of 1.5 mL of 0.28N NaOH, 100 μL of o-phthaldialdehyde (20 mg/mL) in methanol was added and the fluorescent reaction stopped by the addition of 200 μL of 3N HCl. The product, L-His-Leu, was measured fluorometrically (360 nm excitation and 500 nm emission).
as §1

[2] = test system: Glucose-6-phosphate dehydrogenase/glucose hexokinase; experiment: Glucose-6-phosphate dehydrogenase and hexokinase activity, fluorimetric assay; settings: 100 μM
Procedure: Glucose-6-phosphate dehydrogenase and hexokinase activity. Glucose-6-phosphate dehydrogenase and hexokinase activity in the absence and presence of the compounds was determined in a fluorimetric assay. Ten mM Tris MgCl2 buffer (total volume of 200 ml) containing glucose-6-phosphate dehydrogenase, 0.3M ATP, 30 mM NADP+ was added to 96 well microtitre plate together with 20 μl of compound, a reading at excitation 350 nm and emission 510 nm was taken followed by the addition of hexokinase and another reading.

Aminopeptidase N = target: T3, Aminopeptidase N (Sus scrofa, UniProt P15145); experiment: Aminopeptidase N assay; type: biochemical; settings: read-out: % inhibition of the catalytic activity of the enzyme
T3 construct: purchased Sigma Aldrich
T3 sequence (P15145 1-963): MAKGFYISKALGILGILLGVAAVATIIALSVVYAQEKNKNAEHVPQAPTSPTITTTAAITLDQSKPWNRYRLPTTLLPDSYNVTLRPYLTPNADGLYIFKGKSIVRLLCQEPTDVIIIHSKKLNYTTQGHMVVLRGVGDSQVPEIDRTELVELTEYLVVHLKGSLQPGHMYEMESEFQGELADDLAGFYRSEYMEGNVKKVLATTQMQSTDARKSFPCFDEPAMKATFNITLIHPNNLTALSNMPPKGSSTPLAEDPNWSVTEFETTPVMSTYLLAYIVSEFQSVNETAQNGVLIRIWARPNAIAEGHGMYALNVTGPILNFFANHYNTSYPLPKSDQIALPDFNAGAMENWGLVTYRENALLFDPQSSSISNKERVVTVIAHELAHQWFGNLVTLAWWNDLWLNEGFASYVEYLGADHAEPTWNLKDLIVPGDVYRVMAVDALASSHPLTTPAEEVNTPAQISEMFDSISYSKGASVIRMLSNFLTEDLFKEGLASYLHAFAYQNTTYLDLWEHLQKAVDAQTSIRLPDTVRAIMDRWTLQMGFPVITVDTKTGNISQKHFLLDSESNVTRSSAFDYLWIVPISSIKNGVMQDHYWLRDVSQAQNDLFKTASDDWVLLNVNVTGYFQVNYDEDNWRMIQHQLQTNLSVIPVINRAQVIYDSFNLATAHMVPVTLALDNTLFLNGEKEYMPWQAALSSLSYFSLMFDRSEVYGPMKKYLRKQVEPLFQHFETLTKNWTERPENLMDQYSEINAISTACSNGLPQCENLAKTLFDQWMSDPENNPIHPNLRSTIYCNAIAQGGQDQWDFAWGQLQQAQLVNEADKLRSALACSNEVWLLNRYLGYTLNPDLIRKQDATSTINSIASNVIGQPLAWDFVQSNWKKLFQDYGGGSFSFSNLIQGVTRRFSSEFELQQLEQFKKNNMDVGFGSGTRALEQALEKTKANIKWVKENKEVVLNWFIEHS
Procedure: Aminopeptidase N assay. 5 mU of aminopeptidase M (Sigma Aldrich) was incubated with 100 μM of substrate alanine-β-naphthylamide (Sigma Aldrich) in Tris buffered saline (50 mM Tris-HCl, 150 mM NaCl pH 7.5) at 25° C. IRAP inhibitors (1-10 μM) were added after 1 minute and fluorescence at 405 nm was followed.
as §1

T1 sequence (Q9UIQ6 whole entry): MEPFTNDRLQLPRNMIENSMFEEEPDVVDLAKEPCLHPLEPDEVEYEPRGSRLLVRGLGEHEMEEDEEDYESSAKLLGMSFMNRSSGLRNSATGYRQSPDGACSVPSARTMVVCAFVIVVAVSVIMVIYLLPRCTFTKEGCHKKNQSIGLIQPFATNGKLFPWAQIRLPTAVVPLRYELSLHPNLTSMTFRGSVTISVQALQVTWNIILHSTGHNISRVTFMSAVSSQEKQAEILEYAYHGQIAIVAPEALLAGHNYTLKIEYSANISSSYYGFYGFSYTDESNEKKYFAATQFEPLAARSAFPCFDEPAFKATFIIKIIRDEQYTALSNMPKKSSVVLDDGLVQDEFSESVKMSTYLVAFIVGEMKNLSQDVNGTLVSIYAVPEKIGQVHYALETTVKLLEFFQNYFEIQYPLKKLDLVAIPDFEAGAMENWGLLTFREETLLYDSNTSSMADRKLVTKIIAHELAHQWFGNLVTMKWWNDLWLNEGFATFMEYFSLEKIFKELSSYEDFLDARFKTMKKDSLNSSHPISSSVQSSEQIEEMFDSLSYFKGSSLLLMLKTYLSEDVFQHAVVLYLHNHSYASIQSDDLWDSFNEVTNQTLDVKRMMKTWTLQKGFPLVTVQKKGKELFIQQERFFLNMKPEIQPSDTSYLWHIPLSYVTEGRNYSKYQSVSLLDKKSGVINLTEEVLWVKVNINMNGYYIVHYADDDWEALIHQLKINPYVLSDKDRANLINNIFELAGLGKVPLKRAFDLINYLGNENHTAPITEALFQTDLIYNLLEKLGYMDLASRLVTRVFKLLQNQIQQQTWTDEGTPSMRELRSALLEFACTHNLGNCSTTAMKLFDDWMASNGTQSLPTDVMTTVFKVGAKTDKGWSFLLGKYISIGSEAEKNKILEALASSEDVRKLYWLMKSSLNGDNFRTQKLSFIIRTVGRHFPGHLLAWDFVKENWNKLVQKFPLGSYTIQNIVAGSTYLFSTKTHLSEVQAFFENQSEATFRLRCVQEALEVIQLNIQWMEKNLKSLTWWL

| IC50 (IRAP) | Ki (IRAP; calculated from IC50=Ki(1+[S]/Km), read-out: K1) | inhibition at 10 µM (Recombinant human LTA4H; 10 μM) | inhibition at 100 µM (Aminopeptidase N; 100 μM) | SMILES | inhibition at 100 µM (Recombinant human LTA4H) | inhibition at 10 µM [1] | inhibition at 100 µM [1] | % inhibition of the catalytic activity of the enzyme [2] | inhibition at 10 µM (Aminopeptidase N) |
| --- | --- | --- | --- | --- | --- | --- | --- | --- | --- |
| 3 µM | 2 µM | – | – | CCOC(=O)C1=C(N)Oc2cc(O)ccc2C1c1cccnc1 (stereo not shown) [reference compound] | – | – | – | – | – |
| – | – | – | – | CCOC(=O)C1=C(N)Oc2cc(O)ccc2C1c1cnc2ccccc2c1 (stereo not shown) [Compound 3, Ethyl 2-amino-7-hydroxy-4-quinolin-3-yl-4H-chromene-3-carboxylate] | 4% | 0% | 3% | 0% | 12% |
| – | – | 0% | 14% | CCOC(=O)C1=C(NC(C)=O)Oc2cc(O)ccc2C1c1cnc2ccccc2c1 (stereo not shown) [Compound 4, Ethyl 2-(acetylamino)-7-hydroxy-4-quinolin-3-yl-4H-chromene-3-carboxylate] | 25% | 0% | 0% | – | 3% |
